Laboratory results: patent publication US20180193294A1, “Dehydroabietic acid (DHAA) derivatives for use as ion channel openers” (priority 2015, published 2018)
Read-outs that look alike come from different tables or passages of the source.

Tests used:
Assay type in all cases: cell-based
HL-1 cells = test: Membrane potential and firing of spontaneously beating HL-1 cells, whole-cell current clamp; details: 10 uM
Method: All conventional chemicals were purchased from Sigma-Aldrich (Stockholm, Sweden). The DHAA derivatives were diluted in ethanol in a 100 mM stock solution. The stock solutions were stored at −20 t for further use.
The cell culture was done according to a previous study (Claycomb et al., Proceedings of the National Academy of Sciences of the United States of America 1998; 95:2979-2984). In brief, cells were grown on gelating fibronectin coated T75 flasks. They were maintained in Claycomb Medium which was supplemented with 10% fetal bovine serum, 2 mM L-glutamine, 0.1 mM noradrenaline, and 100 U/ml, 100 μg/ml penicillin-streptomycin. Enzymatic dissociation with 0.05% trypsin-EDTA was done after full confluence. Isolated cells were plated on fibronectin-gelatin coated plastic coverslips and used for recording.
Whole-cell current-clamp recordings were done on confluent cells at 35±1° C., using an Axopatch 200B amplifier (Molecular Devices, Sunnyvale, Calif.). Patch pipettes were fabricated from borosilicate capillary glass on a vertical pipette puller and had resistances of 3-5 MO. Data were stored on a computer through Digidata 1440A interface (Molecular Devices), and was analyzed with pCLAMP software (version 10.1, Molecular Devices). The bath solution contained the following (in mM): 140 NaCl, 5.4 KCl, 1 MgCl2, 1.8 CaCl2, 10 HEPES, and 10 glucose (pH adjusted to 7.4 with NaOH). The micropipettes were filled with a solution containing (in mM): 130 K-gluconate, 9 KCl, 8 NaCl, 1 MgCl2, 10 EGTA, 10 HEPES, and 3 Na2ATP (pH adjusted to 7.3 with KOH).

WT Shaker K channel = WT Shaker K channel (Drosophila melanogaster, UniProt P08510, DEL6-46); test: physchem; details: for pKa: Drosophila melanogaster, from pH dependence of G(V) shift
Excerpt: A Shaker K channel is a Kv channel from the fruit fly Drosophila melanogaster. It is homologous to the human Kv1-type ion channels.
All animal experiments were approved by the local Animal Care and Use Committee and followed international guidelines. A modified Shaker H4 channel^30, with removed N-type inactivation (ShH4IR)^31, here called the wild type (WT) channel, was expressed in oocytes. In addition, a modified 3R Shaker K channel where two introduced positive charged arginines (M356R and A359R) in addition to one native arginine (R362) makes the channel more sensitive to DHA^16, was expressed in oocytes and in a CHO—K1 stable cell line.
African clawed frogs (Xenopus laevis) were anesthetized with 1.4 g/L ethyl 3-aminobenzoate methanesulfonate salt (tricaine). After an incision through the abdomen a batch of oocytes were removed. Clusters of oocytes were separated by incubation for ˜1 h in a Ca-free O—R2 solution (in mM: 82.5 NaCl, 2 KCl, 5 HEPES, and 1 MgCl2; pH adjusted to 7.4 by NaOH) containing Liberase Blendzyme. The oocytes were then incubated at 8° C. in a modified Barth's solution (MBS; in mM: 88 NaCl, 1 KCl, 2.4 NaHCO3, 15 HEPES, 0.33 Ca(NO3)2, 0.41 CaCl2, and 0.82 MgSO4; pH adjusted to 7.6 by NaOH) supplemented with penicillin (25 U/ml), streptomycin (25 μg/ml), and sodium pyruvate (2.5 mM) 2-24 hours before injection. Fifty nl of cRNA (50 pg) were injected into each oocyte using a Nanoject injector (Drummond Scientific, Broomall, Pa.). Injected oocytes were kept at 8° C. in MBS until one day before electrophysiological recordings, when they were incubated at 16° C. All chemicals were supplied from Sigma-Aldrich (Stockholm, Sweden) if not stated otherwise.
All manual electrophysiological recordings were performed at room temperature (20-23° C.), using a GeneClamp 500B amplifier (for oocytes) or a Axopatch 200B amplifier (for manual patch clamp of CHO—K1 cells and DRG neurons) and a Digidata 1440A digitizer and pClamp 10 software (all from Molecular Devices, Inc., Sunnyvale, Calif., USA). Compounds were dissolved to 100 mM in 99.5% EtOH and stored at −20° C. Compounds were diluted in extracellular solution to the desired test concentration.
The oocyte was placed in a bath surrounded by 1K extracellular solution that contained (in mM): 88 NaCl, 1 KCl, 15 HEPES, 0.4 CaCl2, and 0.8 MgCl2, pH adjusted to 7.4 by NaOH (reaching a sodium concentration of ˜100 mM). Control solution was added to the bath with a gravity driven perfusion system. Compound solution was added to the bath manually with a syringe. Two glass microelectrodes were inserted into the oocyte using micromanipulators. […] All channels were closed when the potential was clamped to −80 mV and this voltage was set as the holding potential. Currents were evoked from the holding potential of −80 mV by 100-ms long, 5-mV steps ranging from −80 up to +50 mV (WT) and +70 mV (3R).
Conductance GK(V) was calculated as GK(V)=[…], (Eq. 1) where IK is the average current from the steady-state phase at the end of each 100-ms pulse, V is the membrane voltage, and Vrev is the reversal potential for K^+, (set to −80 mV for the oocytes, and calculated to be −89 mV for the CHO—K1 cells).
G(V)=A/(1+exp((V1/2−V)/s))^n (Eq. 2) where A is amplitude of the curve, V is the absolute membrane voltage, V1/2 is the midpoint, s is the slope and n is an exponent set to 4^17. The compound-induced G(V) shift was determined at the 10% level of the maximum conductance in control solution^17. The compound-induced G(V) shift in CHO—K1 was quantified by subtracting the control V1/2 from the compound V1/2 when n was set to 1.
Data for concentration and pH dependent G(V) shifts (ΔV) in oocytes were fit with a dose-response equation ΔV=ΔVmax/(1+c1/2/c), (Eq. 3) where Δvmax is the maximal shift, c1/2 is half maximal effective concentration/pKa value and c is the concentration.

3R Shaker K channel = 3R Shaker K channel (Drosophila melanogaster, UniProt P08510, A359R/M356R); test: physchem; details: for pKa: Drosophila melanogaster, from pH dependence of G(V) shift; for G(V) shift: Table 1; for G(V) shift / compound-induced G(V) shift (mean±SEM): pH 7.4, Xenopus oocytes; for Effects on K channel Mean ± SEM: Table 2, K channel expressed in Xenopus oocytes; for maximum shift: dose dependence fit; for relative current amplitude: representative traces at voltage giving 10% of maximum conductance in control
Summary of the method: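 Two-electrode voltage clamp at 20-23° C. in oocytes (also CHO-K1 stable line, manual patch clamp) expressing Shaker H4 lacking N-type inactivation; 1K extracellular solution, pH 7.4, holding −80 mV, 100-ms 5-mV steps up to +70 mV. Compound-induced G(V) shift taken at 10% of control Gmax (oocytes) or as V1/2 difference (CHO-K1).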

Sequence of WT Shaker K channel (P08510 other isoform, or with tags, fused parts or gaps DEL6-46): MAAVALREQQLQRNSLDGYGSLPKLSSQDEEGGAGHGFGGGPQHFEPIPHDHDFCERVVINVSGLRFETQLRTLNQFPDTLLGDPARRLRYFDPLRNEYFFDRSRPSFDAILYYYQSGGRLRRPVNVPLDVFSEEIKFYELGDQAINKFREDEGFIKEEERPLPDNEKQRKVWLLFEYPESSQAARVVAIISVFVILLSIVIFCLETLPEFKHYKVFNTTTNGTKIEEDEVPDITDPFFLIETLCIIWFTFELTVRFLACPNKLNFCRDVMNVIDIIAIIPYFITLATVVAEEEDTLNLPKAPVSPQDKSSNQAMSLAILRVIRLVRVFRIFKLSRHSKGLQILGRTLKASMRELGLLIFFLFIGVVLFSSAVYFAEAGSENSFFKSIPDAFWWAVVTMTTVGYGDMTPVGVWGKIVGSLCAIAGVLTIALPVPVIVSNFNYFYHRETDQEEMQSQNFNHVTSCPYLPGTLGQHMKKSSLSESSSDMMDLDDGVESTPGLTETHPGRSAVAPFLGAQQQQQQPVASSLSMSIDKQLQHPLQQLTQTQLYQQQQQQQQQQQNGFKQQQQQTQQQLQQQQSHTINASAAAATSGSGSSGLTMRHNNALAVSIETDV
Sequence of 3R Shaker K channel (P08510 whole entry M356R/A359R): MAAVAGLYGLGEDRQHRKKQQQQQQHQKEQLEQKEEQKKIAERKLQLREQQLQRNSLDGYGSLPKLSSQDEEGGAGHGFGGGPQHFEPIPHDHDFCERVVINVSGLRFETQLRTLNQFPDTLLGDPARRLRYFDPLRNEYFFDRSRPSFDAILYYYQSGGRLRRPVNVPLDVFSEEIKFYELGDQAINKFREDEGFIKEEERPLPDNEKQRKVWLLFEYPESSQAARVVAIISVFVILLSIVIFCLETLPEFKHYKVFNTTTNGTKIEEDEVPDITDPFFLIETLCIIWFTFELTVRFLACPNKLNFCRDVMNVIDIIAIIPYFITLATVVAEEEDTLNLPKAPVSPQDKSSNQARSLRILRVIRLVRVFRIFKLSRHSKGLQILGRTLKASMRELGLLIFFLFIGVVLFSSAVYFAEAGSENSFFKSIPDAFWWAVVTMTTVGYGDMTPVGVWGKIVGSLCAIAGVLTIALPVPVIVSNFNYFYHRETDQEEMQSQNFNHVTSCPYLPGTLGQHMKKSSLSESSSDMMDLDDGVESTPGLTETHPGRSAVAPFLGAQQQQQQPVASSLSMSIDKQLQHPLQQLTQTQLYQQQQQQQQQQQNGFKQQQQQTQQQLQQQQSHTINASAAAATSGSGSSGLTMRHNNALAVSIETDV

SMILES	Effects on HL-1 cells Mean (membrane potential) (HL-1 cells) [mV]	effect on membrane potential of HL-1 cells (HL-1 cells)	pKa (WT Shaker K channel; 100 μM)	pKa (3R Shaker K channel; 100 μM)	G(V) shift (3R Shaker K channel; 100 μM) [mV]	Effects on K channel Mean ± SEM (3R Shaker K channel) [mV]	maximum shift (3R Shaker K channel; pH 7.4) [mV]	relative current amplitude (3R Shaker K channel; 100 μM, pH 7.4) [times]	compound-induced G(V) shift (mean±SEM) (3R Shaker K channel; 100 μM)	further results
CO/N=C1\CC2[C@](C)(C(=O)O)CCC[C@]2(C)c2cc(Br)c(C(C)C)cc21 (stereo partly drawn) [Wu32, (1R,4aS,E)-6-bromo-7-isopropyl-9-(methoxyimino)-1,4a-dimethyl-1,2,3,4,4a,9,10,10a-octahydrophenanthrene-1-carboxylic acid]	−3.6	intermediate effect on the HL-1 cells	6.1	5.8	−30.0	−30.0 ± 1.8	−41	10.8		increase in G(V) shift relative to DHAA (ΔVc7, ΔVhalo, ΔVtot) (3R Shaker K channel; 100 μM, pH 7.4): −18.5 mV; factor of increase of the G(V) shift by bromination of C12 with methyloxime at C7 (3R Shaker K channel; Wu32 versus Wu36, 100 μM, pH 7.4): 2.5; Kd (3R Shaker K channel; c1/2 of dose dependence of G(V) shift (Eq. 3), pH 7.4, read-out: Kd-value): 37 µM; shift more than expected from simple addition (3R Shaker K channel; methyloxime at C7 plus Br-12, 100 μM, pH 7.4): −15.5 mV
CC(C)c1ccc2c(c1)C(C(=O)O)CC1[C@](C)(C(=O)O)CCC[C@]21C (stereo partly drawn) [Wu35]	1.5	no effect on the HL-1 cells			−1.3	−1.2 ± 0.6		1.3	no effect on the K channel	effect on G(V) shift / current compared with DHAA (3R Shaker K channel; C7-modified DHAA, 100 μM, pH 7.4): clearly reduced the current increase
C[C@@]1(C(=O)O)CCC[C@]2(C)c3cc(Cl)c(Cl)c(Cl)c3CCC12 (stereo partly drawn) [Wu50, (1R,4aS)-6,7,8-trichloro-1,4a-dimethyl-1,2,3,4,4a,9,10,10a-octahydrophenanthrene-1-carboxylic acid]	−5.5		6.8	6.5	−31.6	−31.6 ± 2.1	−46		−31.6±2.1 mV	G(V) shift for WT relative to 100 μM DHAA (WT Shaker K channel; 100 μM, pH 7.4): ~10 times; G(V) shift for WT (WT Shaker K channel; 100 μM, pH 7.4, Xenopus oocytes): −21.2 mV; current amplitude increase compared to DHAA (WT Shaker K channel; WT channel at pH 7.4): 56 times; current amplitude increase compared to DHA (A=exp(−ΔV/4.7)) (WT Shaker K channel; WT, 100 μM, pH 7.4): 25 times; Kd (3R Shaker K channel): 37 µM; ΔG(V) at 1 μM (3R Shaker K channel; 1 μM, pH 7.4): −1.3±0.3 mV; ΔG(V) of representative G(V) curves (single examples) (3R Shaker K channel; 100 μM, pH 7.4, same cells as representative traces): −32.6 mV
